Molecular target: T1, human chemokine receptor 2 isoform B (Homo sapiens, UniProt P41597)
T1 construct: host or cells: CHOK1-CCR2B-A5 (CHO-K1)
T1 sequence (P41597 1-360 isoform P41597-2): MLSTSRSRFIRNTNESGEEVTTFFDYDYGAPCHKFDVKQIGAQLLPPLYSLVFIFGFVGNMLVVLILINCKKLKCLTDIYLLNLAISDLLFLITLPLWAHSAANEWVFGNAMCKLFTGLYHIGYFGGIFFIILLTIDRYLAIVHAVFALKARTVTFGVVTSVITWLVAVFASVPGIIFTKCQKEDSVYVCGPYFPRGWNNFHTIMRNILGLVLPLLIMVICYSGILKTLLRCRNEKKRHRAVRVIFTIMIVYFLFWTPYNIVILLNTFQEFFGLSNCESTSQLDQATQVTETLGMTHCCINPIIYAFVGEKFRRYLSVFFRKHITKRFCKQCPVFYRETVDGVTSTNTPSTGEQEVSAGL
Assay: Calcium mobilization assay (FLIPR, CHOK1-CCR2B-A5 cells, 20 nM MCP-1)
Format: cell-based
Conditions: Ca mobilisation assay, CCR2, antagonist activity vs 20 nM MCP-1
Procedure, shortened: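 FLIPR Fluo-4 calcium readout in CHO-K1 cells stably overexpressing human CCR2B; compounds first monitored 80 s for agonist activity, then after 20-30 min at 30 °C challenged with 20 nM MCP-1. Response is max minus basal fluorescence; antagonist value is concentration giving 50% inhibition of specific calcium increase.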

Row | IC50 | SMILES
1 | 765 nM | O=C(/C=C/c1ccc(Cl)c(Cl)c1)N1CCC(=O)N(CCCN2CCN(C3CC3)CC2)CC1 [Example 241]
2 | 124 nM | O=C(/C=C/c1ccc(Cl)c(Cl)c1)N1CCC(=O)N(CCCN2CCN(C3CCCC3)CC2)CC1 [Example 242]
3 | 660 nM | COC(=O)NC1CCN(CCCN2CCN(C(=O)/C=C/c3ccc(Cl)c(Cl)c3)CCC2=O)CC1 [Example 244]
4 | 613 nM | COCC1CCN(CCCN2CCN(C(=O)/C=C/c3ccc(Cl)c(Cl)c3)CCC2=O)CC1 [Example 247]
5 | 108 nM | CC1(CO)CCN(CCCN2CCN(C(=O)/C=C/c3ccc(Cl)c(Cl)c3)CCC2=O)CC1 [Example 254]
6 | 375 nM | CC(C)CN1CCN(CCCN2CCN(C(=O)/C=C/c3ccc(Cl)c(Cl)c3)CCC2=O)CC1 [Example 258]
7 | 9 nM | O=C(/C=C/c1ccc(Cl)c(Cl)c1)N1CCC(=O)N(CCCN2CCC3(CC3)C(O)C2)CC1 (stereo not shown) [Example 261]
8 | 4 nM | O=C(/C=C/c1ccc(Cl)c(Cl)c1)N1CCC(=O)N(CCCN2CCC3(CC3)C(O)C2)CC1 (stereo not shown) [Example 262]
9 | 644 nM | O=C(/C=C/c1ccc(Cl)c(Cl)c1)N1CCC(=O)N(CC(O)CN2CCC(O)CC2)CC1 (stereo not shown) [Example 285]
10 | 2 nM | O=C(/C=C/c1ccc(Cl)c(Cl)c1)N1CCC(=O)N(C[C@@H](O)CN2CCC3(CC3)C(O)C2)CC1 (stereo partly drawn) [Example 327, 1-[(E)-3-(3,4-Dichloro-phenyl)-acryloyl]-4-[(S)-2-hydroxy-3-((−)-4-hydroxy-6-aza-spiro[2.5]oct-6-yl)-propyl]-[1,4]diazepan-5-one]
11 | 2 nM | O=C(/C=C/c1ccc(Cl)c(Cl)c1)N1CCC(=O)N(C[C@@H](O)CN2CCC3(CC3)C(O)C2)CC1 (stereo partly drawn) [Example 332, 1-[(E)-3-(3,4-Dichloro-phenyl)-acryloyl]-4-[(S)-2-hydroxy-3-((+)-4-hydroxy-6-aza-spiro[2.5]oct-6-yl)-propyl]-[1,4]diazepan-5-one]
12 | 4 nM | CC1(C)CCN(C[C@H](O)CN2CCN(C(=O)/C=C/c3ccc(Cl)c(Cl)c3)CCC2=O)CC1O (stereo partly drawn) [Example 334, 1-[(E)-3-(3,4-Dichloro-phenyl)-acryloyl]-4-[(S)-2-hydroxy-3-(3-hydroxy-4,4-dimethyl-piperidin-1-yl)-propyl]-[1,4]diazepan-5-one]
13 | 3 nM | O=C(/C=C/c1ccc(F)c(Cl)c1)N1CCC(=O)N(C[C@@H](O)CN2CCC3(CC3)C(O)C2)CC1 (stereo partly drawn) [Example 336, 1-[(E)-3-(3-Chloro-4-fluoro-phenyl)-acryloyl]-4-[(S)-2-hydroxy-3-((−)-4-hydroxy-6-aza-spiro[2.5]oct-6-yl)-propyl]-[1,4]diazepan-5-one]
14 | 19 nM | CC1(CO)CCN(CC(O)CN2CCN(C(=O)C=Cc3ccc(F)c(Cl)c3)CCC2=O)CC1O [Example 340, 1-[(E)-3-(3-Chloro-4-fluoro-phenyl)-acryloyl]-4-[(S)-2-hydroxy-3-((cis)-3-hydroxy-4-hydroxymethyl-4-methyl-piperidin-1-yl)-propyl]-[1,4]diazepan-5-one]
15 | 3 nM | O=C(/C=C/c1ccc(F)c(Cl)c1)N1CCC(=O)N(C[C@@H](O)CN2CCC3(CC3)C(O)C2)CC1 (stereo partly drawn) [Example 342, 1-[(E)-3-(3-Chloro-4-fluoro-phenyl)-acryloyl]-4-[(S)-2-hydroxy-3-((+)-4-hydroxy-6-aza-spiro[2.5]oct-6-yl)-propyl]-[1,4]diazepan-5-one]
16 | 11 nM | CC1(C)CCN(C[C@H](O)CN2CCN(C(=O)/C=C/c3ccc(F)c(Cl)c3)CCC2=O)CC1O (stereo partly drawn) [Example 343, 1-[(E)-3-(3-Chloro-4-fluoro-phenyl)-acryloyl]-4-[(S)-2-hydroxy-3-(3-hydroxy-4,4-dimethyl-piperidin-1-yl)-propyl]-[1,4]diazepan-5-one]
17 | 385 nM | O=C(C=Cc1ccc(Cl)c(Cl)c1)N1CCC(=O)N(CCNC2CCCCC2O)CC1 (stereo not shown) [Example 357]
18 | 246 nM | O=C(/C=C/c1ccc(F)c(Cl)c1)N1CCC(=O)N(CCCCN2CCCCC2)CC1 [Example 382]
19 | 334 nM | O=C(/C=C/c1ccc(F)c(Cl)c1)N1CCC(=O)N(CCCCN2CCC(O)CC2)CC1 [Example 384]
20 | 380 nM | O=C(/C=C/c1ccc(F)c(Cl)c1)N1CCC(=O)N(CCCCN2CCC(CO)CC2)CC1 [Example 386]
21 | 381 nM | CC1C(O)CCCN1CCCCN1CCN(C(=O)C=Cc2ccc(F)c(Cl)c2)CCC1=O (stereo not shown) [Example 388]
22 | 944 nM | O=C(/C=C/c1ccc(F)c(Cl)c1)N1CCC(=O)N(CCCCN2CCN(C3CC3)CC2)CC1 [Example 397]
23 | 720 nM | COCCN1CCN(CCCCN2CCN(C(=O)/C=C/c3ccc(F)c(Cl)c3)CCC2=O)CC1 [Example 399]
24 | 92 nM | COC(=O)NC1CCN(CCCCN2CCN(C(=O)/C=C/c3ccc(F)c(Cl)c3)CCC2=O)CC1 [Example 401]
25 | 291 nM | COC(=O)N(C)C1CCN(CCCCN2CCN(C(=O)/C=C/c3ccc(F)c(Cl)c3)CCC2=O)CC1 [Example 402]
26 | 95 nM | COCC1CCN(CCCCN2CCN(C(=O)/C=C/c3ccc(F)c(Cl)c3)CCC2=O)CC1 [Example 404]

Row | IC50 | SMILES
27 | 199 nM | CC1(CO)CCN(CCCCN2CCN(C(=O)C=Cc3ccc(Cl)c(F)c3)CCC2=O)CC1O (stereo not shown) [Example 411]
28 | 342 nM | CC1(CO)CCN(CCCCN2CCN(C(=O)C=Cc3ccc(Cl)c(F)c3)CCC2=O)CC1O (stereo not shown) [Example 412]
29 | 27 nM | O=C(/C=C/c1ccc(Cl)c(F)c1)N1CCC(=O)N(CCCCN2CCC3(CC3)C(O)C2)CC1 (stereo not shown) [Example 415]
30 | 11 nM | O=C(/C=C/c1ccc(Cl)c(F)c1)N1CCC(=O)N(CCCCN2CCC3(CC3)C(O)C2)CC1 (stereo not drawn) [Example 416, 1-[(E)-3-(4-Chloro-3-fluoro-phenyl)-acryloyl]-4-[4-((-)-4-hydroxy-6-aza-spiro[2.5]oct-6-yl)-butyl]-[1,4]diazepan-5-one]
31 | 70 nM | O=C(/C=C/c1ccc(Cl)c(Cl)c1)N1CCC(=O)N(CCCCN2CCC(CO)CC2)CC1 [Example 422]
32 | 16 nM | COCC1CCCN(CCCCN2CCN(C(=O)/C=C/c3ccc(Cl)c(Cl)c3)CCC2=O)C1 (stereo not shown) [Example 423]
33 | 119 nM | O=C(/C=C/c1ccc(Cl)c(Cl)c1)N1CCC(=O)N(CCCCN2CCC(O)CC2)CC1 [Example 424]
34 | 746 nM | CC(C)N1CCN(CCCCN2CCN(C(=O)/C=C/c3ccc(Cl)c(Cl)c3)CCC2=O)CC1 [Example 436]
35 | 463 nM | O=C(/C=C/c1ccc(Cl)c(Cl)c1)N1CCC(=O)N(CCCCN2CCN(C3CC3)CC2)CC1 [Example 437]
36 | 369 nM | O=C(/C=C/c1ccc(Cl)c(Cl)c1)N1CCC(=O)N(CCCCN2CCN(C3CCCC3)CC2)CC1 [Example 438]
37 | 263 nM | COCCN1CCN(CCCCN2CCN(C(=O)/C=C/c3ccc(Cl)c(Cl)c3)CCC2=O)CC1 [Example 439]
38 | 22 nM | COC(=O)NC1CCN(CCCCN2CCN(C(=O)/C=C/c3ccc(Cl)c(Cl)c3)CCC2=O)CC1 [Example 441]
39 | 85 nM | COC(=O)N(C)C1CCN(CCCCN2CCN(C(=O)/C=C/c3ccc(Cl)c(Cl)c3)CCC2=O)CC1 [Example 442]
40 | 32 nM | COCC1CCN(CCCCN2CCN(C(=O)/C=C/c3ccc(Cl)c(Cl)c3)CCC2=O)CC1 [Example 444, 1-[(E)-3-(3,4-Dichloro-phenyl)-acryloyl]-4-[4-(4-methoxymethyl-3-piperidin-1-yl)-butyl]-[1,4]diazepan-5-one]
41 | 33 nM | CC(=O)NC1CCN(CCCCN2CCN(C(=O)/C=C/c3ccc(Cl)c(Cl)c3)CCC2=O)CC1 [Example 453]
42 | 832 nM | CN(CCO)CCCCN1CCN(C(=O)/C=C/c2ccc(Cl)c(Cl)c2)CCC1=O [Example 460]
43 | 614 nM | CCN(CCO)CCCCN1CCN(C(=O)/C=C/c2ccc(Cl)c(Cl)c2)CCC1=O [Example 461]
44 | 376 nM | CC(C)CN1CCN(CCCCN2CCN(C(=O)/C=C/c3ccc(Cl)c(Cl)c3)CCC2=O)CC1 [Example 465]
45 | 51 nM | CC1(CO)CCN(CCCCN2CCN(C(=O)C=Cc3ccc(Cl)c(Cl)c3)CCC2=O)CC1O (stereo not shown) [Example 473]
46 | 106 nM | C[C@@]1(CO)CCN(CCCCN2CCN(C(=O)/C=C/c3ccc(Cl)c(Cl)c3)CCC2=O)C[C@H]1O [Example 474]
47 | 15 nM | O=C(/C=C/c1ccc(Cl)c(F)c1)N1CCC(=O)N(CCCN2CCC3(CC3)C(O)C2)CC1 (stereo not drawn) [Example 493, 1-[(E)-3-(4-Chloro-3-fluoro-phenyl)-acryloyl]-4-[3-((+)-4-hydroxy-6-aza-spiro[2.5]oct-6-yl)-propyl]-[1,4]diazepan-5-one]
48 | 6 nM | O=C(/C=C/c1ccc(Cl)c(F)c1)N1CCC(=O)N(CCCN2CCC3(CC3)C(O)C2)CC1 (stereo not drawn) [Example 494, 1-[(E)-3-(4-Chloro-3-fluoro-phenyl)-acryloyl]-4-[3-((−)-4-hydroxy-6-aza-spiro[2.5]oct-6-yl)-propyl]-[1,4]diazepan-5-one]
49 | 19 nM | O=C(/C=C/c1ccc(F)c(F)c1)N1CCC(=O)N(CCCN2CCC3(CC3)C(O)C2)CC1 (stereo not shown) [Example 495]
50 | 7 nM | O=C(/C=C/c1cccc(Cl)c1)N1CCC(=O)N(CCCN2CCC3(CC3)C(O)C2)CC1 (stereo not drawn) [Example 496, 1-[(E)-3-(3-Chloro-phenyl)-acryloyl]-4-[3-((-)-4-hydroxy-6-aza-spiro[2.5]oct-6-yl)-propyl]-[1,4]diazepan-5-one]
51 | 26 nM | O=C(/C=C/c1cnc(Cl)c(Cl)c1)N1CCC(=O)N(CCCN2CCC3(CC3)C(O)C2)CC1 (stereo not drawn) [Example 497, 1-[(E)-3-(5,6-Dichloro-pyridin-3-yl)-acryloyl]-4-[3-((-)-4-hydroxy-6-aza-spiro[2.5]oct-6-yl)-propyl]-[1,4]diazepan-5-one]
52 | 11 nM | O=C(/C=C/c1ccc(Cl)cc1)N1CCC(=O)N(CCCN2CCC3(CC3)C(O)C2)CC1 (stereo not shown) [Example 498]

— patent US7632829B2, “Diazepan derivatives” (Hoffmann-La Roche Inc., priority 2006, dated 2009)
